This passage reports IC50 results from BindingDB's records for patent US20230399319 (Japan Tobacco, 2023).

Chain of NACHT, LRR and PYD domains-containing protein 3 (Q96P20 whole entry, the tested form may be a part): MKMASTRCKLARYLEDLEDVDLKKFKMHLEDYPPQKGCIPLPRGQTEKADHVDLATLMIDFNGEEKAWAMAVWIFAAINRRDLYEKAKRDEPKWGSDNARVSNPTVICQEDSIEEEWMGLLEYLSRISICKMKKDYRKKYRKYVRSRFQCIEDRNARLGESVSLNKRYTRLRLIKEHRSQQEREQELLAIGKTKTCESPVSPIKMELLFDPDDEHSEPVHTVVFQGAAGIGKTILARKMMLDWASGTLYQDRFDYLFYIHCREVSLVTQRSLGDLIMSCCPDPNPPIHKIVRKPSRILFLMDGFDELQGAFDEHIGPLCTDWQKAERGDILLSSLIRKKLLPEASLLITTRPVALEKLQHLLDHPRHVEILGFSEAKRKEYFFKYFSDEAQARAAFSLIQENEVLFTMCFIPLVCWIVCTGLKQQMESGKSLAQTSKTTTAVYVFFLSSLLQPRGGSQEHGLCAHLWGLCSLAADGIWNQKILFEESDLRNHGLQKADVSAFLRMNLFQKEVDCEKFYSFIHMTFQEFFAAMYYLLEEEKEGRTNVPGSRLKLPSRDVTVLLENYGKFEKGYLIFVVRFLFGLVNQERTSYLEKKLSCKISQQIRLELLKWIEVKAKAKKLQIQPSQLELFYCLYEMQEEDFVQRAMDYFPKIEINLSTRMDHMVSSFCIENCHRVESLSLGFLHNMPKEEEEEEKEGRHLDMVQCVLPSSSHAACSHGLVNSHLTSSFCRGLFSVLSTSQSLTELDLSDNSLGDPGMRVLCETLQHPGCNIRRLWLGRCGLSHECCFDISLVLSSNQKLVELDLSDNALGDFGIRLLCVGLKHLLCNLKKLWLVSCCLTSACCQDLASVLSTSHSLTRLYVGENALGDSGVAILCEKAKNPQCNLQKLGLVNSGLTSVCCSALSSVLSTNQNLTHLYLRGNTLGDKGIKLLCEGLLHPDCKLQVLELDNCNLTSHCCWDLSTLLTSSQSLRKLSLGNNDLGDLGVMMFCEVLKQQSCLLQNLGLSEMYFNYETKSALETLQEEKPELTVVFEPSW

This experiment has as its target NACHT, LRR and PYD domains-containing protein 3 (Homo sapiens, UniProt Q96P20). Put plainly: Evaluation of NLRP3 Inflammasome Inhibitory Activity Assay. As to the method: The NLRP3 inflammasome inhibitory activity of test compounds were evaluated CM the basis of the inhibitory activity of the IL-1β, production in THP1-Null cells (Product Number: thp-null, InvivoGen). […] A solution containing a test compound (20 μL/well) was added to test compound-setting wells. […] The supernatant of the culture was cryonically stored (set at −20° C.) until measurement of IL-1β.
One may read the IC50 as the concentration at which inhibition is half-maximal. Higher therefore signals a need for much substance. Turning to `Cc1ccc(C)c(Nc2nc(C(=O)NS(=O)(=O)N3CCOC(COCC4CCC4)CC3)co2)c1` (stereo not drawn) [US20230399319, Example 2-342], the IC50 was 10 nM.

For the compound `COC1COCCN(S(=O)(=O)NC(=O)c2coc(Nc3cc(C(C)C)c(F)cc3C)n2)C1` (stereo not drawn) [US20230399319, Example 2-343], the IC50 is 16 nM.

`COC[C@@H]1CCN(S(=O)(=O)NC(=O)c2coc(Nc3cc(C)c(F)cc3C)n2)CCO1` [US20230399319, Example 2-347] showed an IC50 of 55 nM.

As for `Cc1cc(F)c(C(C)C)cc1Nc1nc(C(=O)NS(=O)(=O)N2CCOC(CO)CC2)co1` (stereo not drawn) [US20230399319, Example 2-348], 28 nM corresponded to half-maximal inhibition (IC50).

As for `Cc1ccc(C)c(Nc2nc(C(=O)NS(=O)(=O)N3CCOC(CC#N)CC3)co2)c1` (stereo not drawn) [US20230399319, Example 2-349], it took 1200 nM to reach half-maximal inhibition (IC50).

In turn, `Cc1cc(F)c(C(C)C)cc1Nc1nc(C(=O)NS(=O)(=O)N2CCOCC(O)C2)co1` (stereo not drawn) [US20230399319, Example 2-350] registered an IC50 of 15 nM.

The compound `Cc1cc(F)c(C(C)C)cc1Nc1nc(C(=O)NS(=O)(=O)N2CCOCC(C)(O)C2)co1` (stereo not drawn) [US20230399319, Example 2-351] yielded an IC50 of 22 nM.

For `CCOCC1CCN(S(=O)(=O)NC(=O)c2coc(Nc3cc(OC)c(F)cc3C)n2)CCO1` (stereo not drawn) [US20230399319, Example 2-352], the half-inhibitory concentration (IC50) amounted to 26 nM.

With `Cc1cc(Nc2nc(C(=O)NS(=O)(=O)N3CCOC(COCC(C)(C)O)CC3)co2)c(C)cc1F` (stereo not drawn) [US20230399319, Example 2-353], the IC50 is 16 nM.

The compound `COC[C@H]1CCN(S(=O)(=O)NC(=O)c2coc(Nc3cc(C)c(F)cc3C)n2)CCO1` [US20230399319, Example 3-001] returned an IC50 of 72 nM.

`Cc1cc(Nc2nc(C(=O)NS(=O)(=O)N3CCOC(C(C)(C)O)CC3)co2)c(C)cc1F` (stereo not drawn) [US20230399319, Example 3-002] registered an IC50 of 49 nM.

As for `CCOC[C@H]1OCCN(S(=O)(=O)NC(=O)c2coc(Nc3cc(C)c(F)cc3C)n2)C[C@@H]1OC` [US20230399319, Example 3-006], the 50% inhibitory concentration (IC50) stood at 30 nM.

Regarding `CCOC[C@@H]1OCCN(S(=O)(=O)NC(=O)c2coc(Nc3cc(C)c(F)cc3C)n2)C[C@H]1OC` [US20230399319, Example 3-007], 820 nM corresponded to half-maximal inhibition (IC50).
